# Reference: US20200308141A1, “SOLID STATE FORMS OF NERATINIB AND SALTS THEREOF” (PLIVA HRVATSKA D.O.O., priority 2016, published 2020)
# Key:
# [1] = Texture analysis (low-pressure compression, TA-XTplus Texture analyser); type: physicochemical; conditions: for Compressed density index, CDI: 200 mg sample, cyclic compression up to 20 steps, CDI below 15 is considered good flowability
# Procedure: A simple and low sample consuming method for evaluation of the packing density of powders were obtained as compression profiles under low pressures using a die and a flat-faced punch fitted on a TA-XTplus Texture analyser (Stable Micro Systems Ltd., Godalming, UK). The small amount of 200 mg of sample was compressed in a steel mould (with the rate of displacement 0.03 mm/s). Also, a cyclic procedure (similar to tapping) was performed at maximal compressive displacement 0.5 mm, then retracting, relaxation for 15 s and then repeated compressive steps (altogether up to 20 steps).
# Density at 0.2 MPa and CDI data of Neratinib maleate Form monohydrate and Neratinib maleate Form B6 (prepared according to example 12) are presented in Table 2.
# [2] = Solubility test according to European Pharmacopoeia 7.0, 5.11; type: physicochemical; conditions: for Solubility: Ph. Eur. descriptive term
# Procedure: Solubility test was performed according to European Pharmacopoeia 7.0, page 637, 5.11.
structure (smiles),measurement,setting,value
"CCOc1cc2ncc(C#N)c(Nc3ccc(OCc4ccccn4)c(Cl)c3)c2cc1NC(=O)/C=C/CN(C)C [Neratinib base B6, (E)-N-{4-[3-Chloro-4-(2-pyridinylmethoxy)anilino]-3-cyano-7-ethoxy-6-quinolinyl}-4-(dimethylamino) -2-butenamide]",Density at 0.2 MPa,"[1]; 200 mg sample compressed in steel mould, 0.03 mm/s, listed as crystalline form B6 of Neratinib base",higher than that of the Neratinib maleate monohydrate
same,"Compressed density index, CDI",[1]; listed as Neratinib base Form B6,10.89
same,"Compressed density index, CDI",[1]; listed as crystalline form B6 of Neratinib base,below 15
same,Solubility compared with Neratinib maleate monohydrate,"[2]; all tested conditions (pH 1.1, 4.5, 6.8), listed as Neratinib base form B6",good correlation
same,Solubility,[2]; pH = 1.1,sparingly
same,Solubility,[2]; pH = 4.5,slightly
same,Solubility,[2]; pH = 6.8,very slightly
